Test results reported in patent USRE47193E1, “Selectively substituted quinoline compounds” (EISAI R&D MANAGEMENT CO., LTD., priority 2013, dated 2019).

What was measured:
Human TLR7/8 = experiment: Human PBMC cell-based assay, TLR7/8 stimulus (RNA-Ig), cytokine ELISA; conditions: primary human PBMC assay, TLR7/8 potency; ligand not given; read-out: Human PBMCs IC50
In short: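 The agonist was RNA-Ig, a U1 snRNA-derived 26-mer RNA (2.5 μM) complexed with RNA-cross-reacting anti-ssDNA mAb (1:25 or 1 ug/ml), added after 30 min compound pre-incubation (0.1% DMSO). Density-gradient PBMC from healthy donors, 2×10^5/well, were stimulated 20 h at 37 °C; cytokines quantified by ELISA.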

mouse TLR7 = target: T1, mouse TLR7 (Mus musculus, UniProt P58681); experiment: Short-term in vivo (STIV) assay: oral dosing, R848 s.c., plasma IL-6; parameters: female BALB/c mice (Jackson Labs, Bar Harbor, Me.) were dosed by oral gavage; tissue Jackson Labs; host or cells: living female BALB/c mice; plasma IL-6 after s.c. R848
T1 sequence (P58681 27-1050): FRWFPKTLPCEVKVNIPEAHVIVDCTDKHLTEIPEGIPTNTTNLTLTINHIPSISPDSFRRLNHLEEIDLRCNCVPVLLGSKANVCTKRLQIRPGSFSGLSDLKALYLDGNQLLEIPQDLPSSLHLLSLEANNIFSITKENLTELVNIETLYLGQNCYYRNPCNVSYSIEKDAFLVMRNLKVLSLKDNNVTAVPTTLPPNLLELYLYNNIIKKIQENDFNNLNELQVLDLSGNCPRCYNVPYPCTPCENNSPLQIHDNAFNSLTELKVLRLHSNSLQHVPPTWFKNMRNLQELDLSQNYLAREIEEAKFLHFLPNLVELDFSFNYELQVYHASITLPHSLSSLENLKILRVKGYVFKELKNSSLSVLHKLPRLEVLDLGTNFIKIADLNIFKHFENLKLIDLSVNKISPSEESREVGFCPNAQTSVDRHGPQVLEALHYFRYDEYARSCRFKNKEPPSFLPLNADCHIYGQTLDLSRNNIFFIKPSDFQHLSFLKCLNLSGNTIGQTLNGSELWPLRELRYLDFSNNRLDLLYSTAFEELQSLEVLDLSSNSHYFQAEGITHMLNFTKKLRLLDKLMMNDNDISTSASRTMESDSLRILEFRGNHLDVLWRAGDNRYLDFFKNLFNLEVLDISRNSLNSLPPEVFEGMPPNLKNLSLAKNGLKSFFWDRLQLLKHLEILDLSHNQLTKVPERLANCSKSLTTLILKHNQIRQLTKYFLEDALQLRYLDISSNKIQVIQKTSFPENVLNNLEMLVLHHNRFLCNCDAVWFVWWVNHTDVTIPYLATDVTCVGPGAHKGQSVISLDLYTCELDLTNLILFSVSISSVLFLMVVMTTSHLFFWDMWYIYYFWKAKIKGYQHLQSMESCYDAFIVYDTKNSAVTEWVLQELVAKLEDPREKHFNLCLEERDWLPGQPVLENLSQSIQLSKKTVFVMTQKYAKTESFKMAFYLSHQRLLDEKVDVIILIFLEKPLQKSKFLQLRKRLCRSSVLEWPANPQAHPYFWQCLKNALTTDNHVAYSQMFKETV
Description: Figure Legend: Female BALB/c mice were dosed by oral gavage with Vehicle alone (0.5% aqueous methyl-cellulose) or compound formulated in Vehicle at 33 mg/kg, 100 mg/kg or 300 mg/kg. […] (FIG. 1A).
Short-term in vivo (STIV) assay: To assess compound potency in vivo against mouse TLR7, a short-term in vivo (STIV) assay was utilized. Briefly, mice were orally dosed with compounds and at various time points afterwards were injected subcutaneously with agonist R848 to stimulate TLR7. The plasma IL-6 level following R848 stimulation was then measured by ELISA to assess compound potency and duration-of-action.
Short-term in vivo (STIV) assay. Six to eight week old female BALB/c mice (Jackson Labs, Bar Harbor, Me.) were dosed by oral gavage in 200 ul volume with antagonist compounds formulated in 0.5% aqueous methyl-cellulose (Sigma, St. Louis, Mo.). At various time points afterwards, mice were injected subcutaneously (s.c.) in 100 ul volume with 15 ug R848 (Resiquimod; GLSynthesis, Worcester, Mass.) to stimulate TLR7.

CC1CN(c2ccc(C#N)c3ncccc23)CC(CN2CCNC(C)C2C)O1 (stereo not drawn) [ER-887137]
IC50 (Human TLR7/8): 2 nM | % Suppression vs. Vehicle (mouse TLR7; 3 h, 33 mg/kg): 100% | % Suppression vs. Vehicle (mouse TLR7; 3 h, 100 mg/kg): 100% | % Suppression vs. Vehicle (mouse TLR7; 3 h, 300 mg/kg): 100% | % Suppression vs. Vehicle (mouse TLR7; 6 h, 33 mg/kg): 99% | % Suppression vs. Vehicle (mouse TLR7; 6 h, 100 mg/kg): 100% | % Suppression vs. Vehicle (mouse TLR7; 6 h, 300 mg/kg): 100% | % Suppression vs. Vehicle (mouse TLR7; 19 h, 33 mg/kg): 38% | % Suppression vs. Vehicle (mouse TLR7; 19 h, 100 mg/kg): 63% | % Suppression vs. Vehicle (mouse TLR7; 19 h, 300 mg/kg): 100%

C[C@@H]1CN(c2ccc(C#N)c3ncccc23)C[C@H](CN2CCN[C@@H](C)C2)O1 [ER-887270]
IC50 (Human TLR7/8): 1 nM | % Suppression vs. Vehicle (mouse TLR7; 6 h, 33 mg/kg): 98% | % Suppression vs. Vehicle (mouse TLR7; 13 h, 33 mg/kg): 37% | % Suppression vs. Vehicle (mouse TLR7; 13 h, 100 mg/kg): 81% | % Suppression vs. Vehicle (mouse TLR7; 13 h, 300 mg/kg): 99% | % Suppression vs. Vehicle (mouse TLR7; 24 h, 33 mg/kg): 25% | % Suppression vs. Vehicle (mouse TLR7; 24 h, 100 mg/kg): 26% | % Suppression vs. Vehicle (mouse TLR7; 24 h, 300 mg/kg): 100%

Cc1cc(CO)cc(-c2ccc(C#N)c3ncccc23)c1 [ER-888201]
IC50 (Human TLR7/8): 4 nM | % Suppression vs. Vehicle (mouse TLR7; 6 h, 33 mg/kg): 35% | % Suppression vs. Vehicle (mouse TLR7; 6 h, 100 mg/kg): 50% | % Suppression vs. Vehicle (mouse TLR7; 6 h, 300 mg/kg): 40% | % Suppression vs. Vehicle (mouse TLR7; 19 h, 33 mg/kg): 45% | % Suppression vs. Vehicle (mouse TLR7; 19 h, 100 mg/kg): 71% | % Suppression vs. Vehicle (mouse TLR7; 19 h, 300 mg/kg): 79%

CC1CN(c2ccc(C#N)c3ncccc23)CC(CN2CCC(NC(=O)c3ccccc3)CC2)O1 (stereo not drawn) [ER-888321]
IC50 (Human TLR7/8): 22 nM | % Suppression vs. Vehicle (mouse TLR7; 3 h, 33 mg/kg): 98% | % Suppression vs. Vehicle (mouse TLR7; 3 h, 100 mg/kg): 100% | % Suppression vs. Vehicle (mouse TLR7; 6 h, 33 mg/kg): 86% | % Suppression vs. Vehicle (mouse TLR7; 6 h, 100 mg/kg): 100% | % Suppression vs. Vehicle (mouse TLR7; 13 h, 33 mg/kg): 87% | % Suppression vs. Vehicle (mouse TLR7; 13 h, 100 mg/kg): 100% | % Suppression vs. Vehicle (mouse TLR7; 19 h, 33 mg/kg): 59% | % Suppression vs. Vehicle (mouse TLR7; 19 h, 100 mg/kg): 59%

CC(C)N1CCN(C[C@H]2CN(c3ccc(C#N)c4ncccc34)C[C@@H](C)O2)CC1 [ER-888322]
IC50 (Human TLR7/8): 18 nM | % Suppression vs. Vehicle (mouse TLR7; 6 h, 33 mg/kg): 99% | % Suppression vs. Vehicle (mouse TLR7; 6 h, 100 mg/kg): 100% | % Suppression vs. Vehicle (mouse TLR7; 6 h, 300 mg/kg): 100% | % Suppression vs. Vehicle (mouse TLR7; 19 h, 33 mg/kg): 24% | % Suppression vs. Vehicle (mouse TLR7; 19 h, 100 mg/kg): 82% | % Suppression vs. Vehicle (mouse TLR7; 19 h, 300 mg/kg): 100%

C[C@@H]1CN(c2ccc(C#N)c3ncccc23)C[C@H](CN2CCN(C)[C@H](C)C2)O1 [ER-890346]
IC50 (Human TLR7/8): 6 nM | % Suppression vs. Vehicle (mouse TLR7; 3 h, 33 mg/kg): 99% | % Suppression vs. Vehicle (mouse TLR7; 19 h, 11 mg/kg): 0% | % Suppression vs. Vehicle (mouse TLR7; 19 h, 33 mg/kg): 20%

CC[C@H]1CN(C[C@H]2CN(c3ccc(C#N)c4ncccc34)C[C@@H](C)O2)CCN1C [ER-890964]
IC50 (Human TLR7/8): 1 nM | % Suppression vs. Vehicle (mouse TLR7; 3 h, 33 mg/kg): 96% | % Suppression vs. Vehicle (mouse TLR7; 19 h, 33 mg/kg): 0%

CCNC(=O)C1CN(c2ccc(C#N)c3ncccc23)CC(C)O1 (stereo not drawn) [ER-894550]
IC50 (Human TLR7/8): 97 nM | % Suppression vs. Vehicle (mouse TLR7; 6 h, 33 mg/kg): 98% | % Suppression vs. Vehicle (mouse TLR7; 13 h, 33 mg/kg): 72% | % Suppression vs. Vehicle (mouse TLR7; 13 h, 100 mg/kg): 97% | % Suppression vs. Vehicle (mouse TLR7; 13 h, 300 mg/kg): 99% | % Suppression vs. Vehicle (mouse TLR7; 24 h, 33 mg/kg): 48% | % Suppression vs. Vehicle (mouse TLR7; 24 h, 100 mg/kg): 71% | % Suppression vs. Vehicle (mouse TLR7; 24 h, 300 mg/kg): 99%

CC1CN(c2ccc(C#N)c3ncccc23)CC(C(=O)NC2CCCNC2)O1 (stereo not drawn) [ER-897968]
IC50 (Human TLR7/8): 1 nM | % Suppression vs. Vehicle (mouse TLR7; 6 h, 33 mg/kg): 81% | % Suppression vs. Vehicle (mouse TLR7; 13 h, 33 mg/kg): 3% | % Suppression vs. Vehicle (mouse TLR7; 13 h, 100 mg/kg): 35% | % Suppression vs. Vehicle (mouse TLR7; 13 h, 300 mg/kg): 85% | % Suppression vs. Vehicle (mouse TLR7; 24 h, 33 mg/kg): 0% | % Suppression vs. Vehicle (mouse TLR7; 24 h, 100 mg/kg): 8% | % Suppression vs. Vehicle (mouse TLR7; 24 h, 300 mg/kg): 80%

CC1CN(c2ccc(C#N)c3ncccc23)CC(C(=O)NCC2CCCN2)O1 (stereo not drawn) [ER-897969]
IC50 (Human TLR7/8): 7 nM | % Suppression vs. Vehicle (mouse TLR7; 6 h, 33 mg/kg): 0% | % Suppression vs. Vehicle (mouse TLR7; 13 h, 33 mg/kg): 29% | % Suppression vs. Vehicle (mouse TLR7; 13 h, 100 mg/kg): 54% | % Suppression vs. Vehicle (mouse TLR7; 13 h, 300 mg/kg): 71% | % Suppression vs. Vehicle (mouse TLR7; 24 h, 33 mg/kg): 0% | % Suppression vs. Vehicle (mouse TLR7; 24 h, 100 mg/kg): 4% | % Suppression vs. Vehicle (mouse TLR7; 24 h, 300 mg/kg): 29%

CC1CN(c2ccc(C#N)c3ncccc23)CC(C(=O)NCC(C)(C)N(C)C)O1 (stereo not drawn) [ER-898566]
IC50 (Human TLR7/8): 11 nM | % Suppression vs. Vehicle (mouse TLR7; 6 h, 33 mg/kg): 100% | % Suppression vs. Vehicle (mouse TLR7; 6 h, 100 mg/kg): 99% | % Suppression vs. Vehicle (mouse TLR7; 13 h, 33 mg/kg): 73% | % Suppression vs. Vehicle (mouse TLR7; 13 h, 100 mg/kg): 86% | % Suppression vs. Vehicle (mouse TLR7; 13 h, 300 mg/kg): 98% | % Suppression vs. Vehicle (mouse TLR7; 24 h, 33 mg/kg): 0% | % Suppression vs. Vehicle (mouse TLR7; 24 h, 100 mg/kg): 30% | % Suppression vs. Vehicle (mouse TLR7; 24 h, 300 mg/kg): 100%
